{"source": "ChEMBL document CHEMBL4823315", "about": "(Bioorg Med Chem Lett, 2021)", "key": {"Cytochrome P450 3A4": {"molecular_target": "Cytochrome P450 3A4 (Homo sapiens, UniProt P08684)", "sequence (P08684 whole entry)": "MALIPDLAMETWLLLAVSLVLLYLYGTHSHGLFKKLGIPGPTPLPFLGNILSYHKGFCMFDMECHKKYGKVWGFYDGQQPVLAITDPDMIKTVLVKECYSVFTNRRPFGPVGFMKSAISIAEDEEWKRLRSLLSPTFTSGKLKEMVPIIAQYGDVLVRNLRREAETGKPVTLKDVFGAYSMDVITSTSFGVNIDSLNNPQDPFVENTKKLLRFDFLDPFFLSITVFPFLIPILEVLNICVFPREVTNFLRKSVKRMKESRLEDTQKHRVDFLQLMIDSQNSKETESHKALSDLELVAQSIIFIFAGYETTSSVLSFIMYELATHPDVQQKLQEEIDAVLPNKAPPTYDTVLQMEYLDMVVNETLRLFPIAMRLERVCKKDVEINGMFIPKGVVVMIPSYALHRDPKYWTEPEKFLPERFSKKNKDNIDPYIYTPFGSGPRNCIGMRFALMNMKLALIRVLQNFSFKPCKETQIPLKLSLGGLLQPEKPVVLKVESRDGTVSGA", "assay": "Inhibition of CYP3A4 (unknown origin)", "format": "ADME"}, "Cytochrome P450 1A2": {"molecular_target": "T1, Cytochrome P450 1A2 (Homo sapiens, UniProt P05177)", "T1 sequence (P05177 whole entry)": "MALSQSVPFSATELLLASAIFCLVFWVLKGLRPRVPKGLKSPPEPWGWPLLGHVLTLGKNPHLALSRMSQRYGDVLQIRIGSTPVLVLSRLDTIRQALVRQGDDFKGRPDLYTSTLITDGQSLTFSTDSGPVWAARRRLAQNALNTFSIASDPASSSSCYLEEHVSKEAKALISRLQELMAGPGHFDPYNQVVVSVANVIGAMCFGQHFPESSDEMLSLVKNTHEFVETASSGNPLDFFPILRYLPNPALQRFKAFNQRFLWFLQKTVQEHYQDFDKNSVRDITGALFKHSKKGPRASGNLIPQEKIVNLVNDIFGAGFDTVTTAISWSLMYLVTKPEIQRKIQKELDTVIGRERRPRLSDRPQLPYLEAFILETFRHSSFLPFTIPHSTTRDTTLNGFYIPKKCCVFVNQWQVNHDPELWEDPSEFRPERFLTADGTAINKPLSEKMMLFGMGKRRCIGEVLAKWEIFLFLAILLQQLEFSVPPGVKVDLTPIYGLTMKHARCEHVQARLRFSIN", "assay": "Inhibition of CYP1A2 (unknown origin)", "format": "ADME"}, "[1]": {"assay": "Apparent permeability across apical to basal side in human Caco-2 cells", "format": "ADME, cell-based"}, "[2]": {"assay": "Inhibition of p70S6K (unknown origin)", "parameters": "species or system Homo sapiens"}, "[3]": {"molecular_target": "Serine/threonine-protein kinase AKT (Homo sapiens, UniProt P31751+Q9Y243+P31749)", "assay": "Inhibition of Akt (unknown origin)", "format": "protein assay"}, "[4]": {"assay": "Inhibition of Akt/p70S6K in human MDA-MB-436 cells assessed as inhibition of S6 phosphorylation", "format": "cell-based"}, "[5]": {"molecular_target": "Voltage-gated inwardly rectifying potassium channel KCNH2 (Homo sapiens, UniProt Q12809)", "sequence (Q12809 whole entry)": "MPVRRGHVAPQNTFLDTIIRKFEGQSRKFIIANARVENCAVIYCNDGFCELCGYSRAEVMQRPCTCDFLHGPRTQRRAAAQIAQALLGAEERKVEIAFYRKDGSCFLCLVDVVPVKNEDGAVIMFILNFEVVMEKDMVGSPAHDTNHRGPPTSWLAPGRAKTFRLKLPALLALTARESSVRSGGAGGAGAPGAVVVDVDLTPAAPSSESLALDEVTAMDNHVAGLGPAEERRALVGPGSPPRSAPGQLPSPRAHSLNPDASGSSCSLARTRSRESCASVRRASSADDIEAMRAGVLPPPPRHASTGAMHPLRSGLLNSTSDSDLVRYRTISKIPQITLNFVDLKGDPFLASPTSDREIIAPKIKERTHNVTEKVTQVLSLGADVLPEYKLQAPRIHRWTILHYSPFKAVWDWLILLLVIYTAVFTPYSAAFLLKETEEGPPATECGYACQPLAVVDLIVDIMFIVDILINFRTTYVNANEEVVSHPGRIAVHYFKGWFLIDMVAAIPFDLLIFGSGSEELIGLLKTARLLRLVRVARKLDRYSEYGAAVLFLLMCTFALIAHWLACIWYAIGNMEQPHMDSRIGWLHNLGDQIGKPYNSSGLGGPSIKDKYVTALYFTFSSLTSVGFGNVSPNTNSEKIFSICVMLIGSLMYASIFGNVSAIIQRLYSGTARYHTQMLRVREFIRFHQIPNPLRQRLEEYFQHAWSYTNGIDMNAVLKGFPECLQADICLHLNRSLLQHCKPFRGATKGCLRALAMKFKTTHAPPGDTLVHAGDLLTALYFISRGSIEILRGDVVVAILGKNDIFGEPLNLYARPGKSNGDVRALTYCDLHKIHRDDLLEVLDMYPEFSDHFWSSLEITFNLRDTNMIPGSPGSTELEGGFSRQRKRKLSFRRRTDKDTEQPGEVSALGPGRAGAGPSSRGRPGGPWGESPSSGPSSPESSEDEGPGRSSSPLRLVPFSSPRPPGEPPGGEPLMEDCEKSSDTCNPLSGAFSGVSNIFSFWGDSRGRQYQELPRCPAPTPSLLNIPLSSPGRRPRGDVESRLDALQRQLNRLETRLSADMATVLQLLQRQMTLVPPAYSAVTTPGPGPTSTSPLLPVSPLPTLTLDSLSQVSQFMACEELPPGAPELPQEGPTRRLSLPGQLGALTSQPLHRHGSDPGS", "assay": "Inhibition of human ERG by patch clamp assay"}, "[6]": {"assay": "Protein binding in human plasma assessed as unbound fraction", "format": "ADME, cell-free"}, "[7]": {"assay": "Protein binding in mouse plasma assessed as unbound fraction", "format": "ADME, cell-free"}, "Cytochrome P450 2B6": {"molecular_target": "T2, Cytochrome P450 2B6 (Homo sapiens, UniProt P20813)", "T2 sequence (P20813 whole entry)": "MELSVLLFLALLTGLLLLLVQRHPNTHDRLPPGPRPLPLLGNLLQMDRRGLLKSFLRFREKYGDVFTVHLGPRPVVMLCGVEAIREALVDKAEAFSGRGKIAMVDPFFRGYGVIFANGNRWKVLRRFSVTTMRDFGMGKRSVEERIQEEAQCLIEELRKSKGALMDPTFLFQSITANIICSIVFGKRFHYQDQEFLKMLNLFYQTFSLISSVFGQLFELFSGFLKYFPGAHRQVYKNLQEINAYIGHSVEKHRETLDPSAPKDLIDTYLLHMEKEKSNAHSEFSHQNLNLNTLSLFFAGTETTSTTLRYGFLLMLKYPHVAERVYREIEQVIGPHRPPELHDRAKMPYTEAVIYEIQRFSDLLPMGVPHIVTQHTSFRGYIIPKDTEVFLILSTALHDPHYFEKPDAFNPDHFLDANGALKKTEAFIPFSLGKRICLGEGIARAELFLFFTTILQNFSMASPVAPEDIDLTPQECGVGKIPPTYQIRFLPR", "assay": "Inhibition of CYP2B6 (unknown origin)", "format": "ADME"}, "Cytochrome P450 2C8": {"molecular_target": "T3, Cytochrome P450 2C8 (Homo sapiens, UniProt P10632)", "T3 sequence (P10632 whole entry)": "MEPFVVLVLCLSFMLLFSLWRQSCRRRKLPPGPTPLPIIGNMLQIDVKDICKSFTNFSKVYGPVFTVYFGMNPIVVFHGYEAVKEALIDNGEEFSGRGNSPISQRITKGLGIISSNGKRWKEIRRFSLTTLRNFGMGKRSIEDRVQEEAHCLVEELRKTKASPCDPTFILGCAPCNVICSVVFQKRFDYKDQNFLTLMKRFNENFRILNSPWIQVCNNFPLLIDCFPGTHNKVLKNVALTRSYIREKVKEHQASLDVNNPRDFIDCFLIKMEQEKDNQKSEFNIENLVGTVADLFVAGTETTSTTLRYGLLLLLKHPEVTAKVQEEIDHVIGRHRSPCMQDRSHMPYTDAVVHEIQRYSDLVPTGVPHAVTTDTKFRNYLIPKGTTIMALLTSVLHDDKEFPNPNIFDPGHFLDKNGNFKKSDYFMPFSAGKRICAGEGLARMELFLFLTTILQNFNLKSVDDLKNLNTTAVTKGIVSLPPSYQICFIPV", "assay": "Inhibition of CYP2C8 (unknown origin)", "format": "ADME"}, "Cytochrome P450 2C9": {"molecular_target": "Cytochrome P450 2C9 (Homo sapiens, UniProt P11712)", "sequence (P11712 whole entry)": "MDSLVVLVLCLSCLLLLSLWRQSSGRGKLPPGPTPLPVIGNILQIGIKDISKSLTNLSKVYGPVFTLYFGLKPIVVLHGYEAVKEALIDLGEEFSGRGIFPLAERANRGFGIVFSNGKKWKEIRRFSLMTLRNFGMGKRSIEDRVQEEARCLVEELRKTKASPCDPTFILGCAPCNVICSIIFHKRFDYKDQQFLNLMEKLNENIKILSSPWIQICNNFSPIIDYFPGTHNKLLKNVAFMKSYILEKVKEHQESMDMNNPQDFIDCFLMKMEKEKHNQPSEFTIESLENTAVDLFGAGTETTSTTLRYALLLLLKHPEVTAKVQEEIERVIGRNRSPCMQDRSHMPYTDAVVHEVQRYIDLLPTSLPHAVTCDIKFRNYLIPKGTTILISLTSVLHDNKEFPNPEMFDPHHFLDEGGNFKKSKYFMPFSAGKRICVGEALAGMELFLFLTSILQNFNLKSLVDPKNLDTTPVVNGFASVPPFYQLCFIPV", "assay": "Inhibition of CYP2C9 (unknown origin)", "format": "ADME"}, "Cytochrome P450 2C19": {"molecular_target": "Cytochrome P450 2C19 (Homo sapiens, UniProt P33261)", "sequence (P33261 whole entry)": "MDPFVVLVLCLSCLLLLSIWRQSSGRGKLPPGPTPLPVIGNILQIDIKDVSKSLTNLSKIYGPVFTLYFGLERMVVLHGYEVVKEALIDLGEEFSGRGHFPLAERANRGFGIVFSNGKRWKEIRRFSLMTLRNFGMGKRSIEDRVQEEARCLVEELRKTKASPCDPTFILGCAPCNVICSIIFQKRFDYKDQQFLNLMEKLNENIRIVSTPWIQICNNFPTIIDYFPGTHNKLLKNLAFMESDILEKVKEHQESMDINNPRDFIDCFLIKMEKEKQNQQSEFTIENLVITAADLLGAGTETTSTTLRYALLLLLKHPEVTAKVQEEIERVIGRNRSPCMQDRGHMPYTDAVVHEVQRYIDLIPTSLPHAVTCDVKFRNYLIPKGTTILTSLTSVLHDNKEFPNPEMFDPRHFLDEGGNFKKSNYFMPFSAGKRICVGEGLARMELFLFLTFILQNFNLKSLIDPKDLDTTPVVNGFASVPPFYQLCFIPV", "assay": "Inhibition of CYP2C19 (unknown origin)", "format": "ADME"}, "Cytochrome P450 2D6": {"molecular_target": "Cytochrome P450 2D6 (Homo sapiens, UniProt P10635)", "sequence (P10635 whole entry)": "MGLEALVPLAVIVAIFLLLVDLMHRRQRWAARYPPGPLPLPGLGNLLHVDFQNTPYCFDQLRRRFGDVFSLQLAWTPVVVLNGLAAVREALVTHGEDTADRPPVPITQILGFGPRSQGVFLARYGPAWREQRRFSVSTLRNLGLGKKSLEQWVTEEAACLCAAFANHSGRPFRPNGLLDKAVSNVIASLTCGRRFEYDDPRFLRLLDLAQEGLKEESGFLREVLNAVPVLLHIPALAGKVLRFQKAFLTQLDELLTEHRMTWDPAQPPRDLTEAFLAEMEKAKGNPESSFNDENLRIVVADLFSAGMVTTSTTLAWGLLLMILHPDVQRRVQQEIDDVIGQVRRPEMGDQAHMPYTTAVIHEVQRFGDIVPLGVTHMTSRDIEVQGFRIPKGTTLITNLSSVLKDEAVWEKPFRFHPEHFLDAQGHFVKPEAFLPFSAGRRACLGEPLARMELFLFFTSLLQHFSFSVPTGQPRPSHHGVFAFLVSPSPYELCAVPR", "assay": "Inhibition of CYP2D6 (unknown origin)", "format": "ADME"}, "[8]": {"assay": "Intrinsic clearance in human liver microsomes", "format": "ADME, Microsome", "conditions": "read-out: CLH"}, "[9]": {"assay": "Intrinsic clearance in mouse liver microsomes", "format": "ADME, Microsome", "conditions": "read-out: CLH"}, "[10]": {"assay": "Efflux ratio of apparent permeability in human Caco-2 cells", "format": "ADME, cell-based"}, "[11]": {"assay": "Thermodynamic solubility of the compound at pH 7.4", "format": "physicochemical", "conditions": "buffer, read-out: Therm_solubility"}, "[12]": {"assay": "Thermodynamic solubility of the compound at pH 1.2", "format": "physicochemical", "conditions": "buffer, read-out: Therm_solubility"}, "[13]": {"assay": "AUC in CD-1 mouse at 0.5 mg/kg, po", "format": "ADME, organism-based", "parameters": "dose 0.5 mg/kg", "conditions": "in vivo"}, "[14]": {"assay": "AUC in CD-1 mouse at 0.2 mg/kg, iv", "format": "ADME, organism-based", "parameters": "dose 0.2 mg/kg", "conditions": "in vivo"}, "[15]": {"assay": "Cmax in CD-1 mouse at 0.5 mg/kg, po", "format": "ADME, organism-based", "parameters": "route oral, dose 0.5 mg/kg", "conditions": "in vivo"}, "[16]": {"assay": "Cmax in CD-1 mouse at 0.2 mg/kg, iv", "format": "ADME, organism-based", "parameters": "route intravenous, dose 0.2 mg/kg", "conditions": "in vivo"}, "[17]": {"assay": "Half life in CD-1 mouse at 0.5 mg/kg, po or 0.2 mg/kg, iv", "format": "ADME, organism-based", "conditions": "in vivo"}, "[18]": {"assay": "Clearance in CD-1 mouse at 0.5 mg/kg, po or 0.2 mg/kg, iv", "format": "ADME, organism-based", "conditions": "in vivo"}, "[19]": {"assay": "Volume of distribution in CD-1 mouse at 0.5 mg/kg, po or 0.2 […], iv", "format": "ADME, organism-based", "conditions": "in vivo"}, "[20]": {"assay": "Oral bioavailability in CD-1 mouse at 0.5 mg/kg", "format": "ADME, organism-based", "conditions": "in vivo"}}}
{"smiles": "Cn1cc(-c2ccc(F)c(C(F)(F)F)c2)nc1C1CCN(c2ncnc(N)c2-c2ccc(F)cc2)CC1", "values": [{"measurement": "IC50", "setting": "Cytochrome P450 3A4", "value": "> 20", "unit": "µM"}, {"measurement": "IC50", "setting": "Cytochrome P450 1A2", "value": "> 20", "unit": "µM"}, {"measurement": "Papp A→B", "setting": "[1]", "value": 1.9, "unit": "×10⁻⁶ cm/s"}, {"measurement": "IC50", "setting": "[2]", "value": 0.004, "unit": "µM"}, {"measurement": "IC50", "setting": "[3]", "value": 2.2, "unit": "µM"}, {"measurement": "IC50", "setting": "[4]", "value": 0.04, "unit": "µM"}, {"measurement": "IC50", "setting": "[5]", "value": 1.8, "unit": "µM"}, {"measurement": "fraction unbound", "setting": "[6]", "value": 0.0008}, {"measurement": "fraction unbound", "setting": "[7]", "value": 0.0003}, {"measurement": "IC50", "setting": "Cytochrome P450 2B6", "value": 6.5, "unit": "µM"}, {"measurement": "IC50", "setting": "Cytochrome P450 2C8", "value": "> 20", "unit": "µM"}, {"measurement": "IC50", "setting": "Cytochrome P450 2C9", "value": "> 20", "unit": "µM"}, {"measurement": "IC50", "setting": "Cytochrome P450 2C19", "value": "> 20", "unit": "µM"}, {"measurement": "IC50", "setting": "Cytochrome P450 2D6", "value": "> 20", "unit": "µM"}, {"measurement": "microsomal CLint", "setting": "[8]", "value": 23, "unit": "µL/min/mg"}, {"measurement": "microsomal CLint", "setting": "[9]", "value": 48, "unit": "µL/min/mg"}, {"measurement": "efflux ratio", "setting": "[10]", "value": 1.3}, {"measurement": "solubility thermodynamic", "setting": "[11]", "value": "< 1", "unit": "µg/mL"}, {"measurement": "solubility thermodynamic", "setting": "[12]", "value": "< 1", "unit": "µg/mL"}, {"measurement": "AUC", "setting": "[13]", "value": 557, "unit": "ng·h/mL"}, {"measurement": "AUC", "setting": "[14]", "value": 1350, "unit": "ng·h/mL"}, {"measurement": "Cmax", "setting": "[15]", "value": 72.1, "unit": "ng/mL"}, {"measurement": "Cmax", "setting": "[16]", "value": 597, "unit": "ng/mL"}, {"measurement": "half-life", "setting": "[17]", "value": 4.68, "unit": "h"}, {"measurement": "CL", "setting": "[18]", "value": 12.3, "unit": "mL/min/kg"}, {"measurement": "Vd", "setting": "[19]", "value": 2.16, "unit": "L/kg"}, {"measurement": "F", "setting": "[20]", "value": 41, "unit": "%"}]}
